≈ marks a conversion by molar mass, not a printed value. Like-named read-outs stand apart in the source and are kept apart here.
What was measured:
S. aureus CCARM 3126 = test: microbe, parasite or virus in culture; conditions: drug-resistant strain, 2 × 10^5 CFU/ml, 24 h at 37° C, average of 3–4 independent experiments
Excerpt: (§1) Escherichia coli (KCTC 1682), Salmonella typhimurium (KCTC 1926), Pseudomonas aeruginosa (KCTC 1637), Staphylococcus aureus (KCTC 1621), Bacillus subtilis (KCTC 1918), and Listeria monocytogenes (KCTC 3710) were obtained from the Korean Collection for Type Cultures (KCTC). Drug-resistant E. coli strains (CCARM 1229 and CCARM 1238), S. typhimurium strains (CCARM 8007, CCARM 8009, and CCARM 8013), and S. aureus strains (CCARM 3089, CCARM 3090, CCARM 3108, CCARM 3114, and CCARM 3126) were from the Culture Collection of Antibiotic-Resistant Microbes (CCARM) at Seoul Women’s University, Korea.
(§2) The antibacterial activities of the peptides against Gram-negative, Gram-positive and antibiotic-resistant bacterial strains were evaluated using the microbroth dilution method (Park et al. [2003]). Aliquots of culture medium containing bacterial suspensions in mid-logarithmic phase at a concentration of 2 × 10^5 colony forming units (CFU)/ml were added to each well of a multiwell plate containing peptide solution serially diluted 2× in 10 mM sodium phosphate buffer (pH 7.2) or phosphate-buffered saline (PBS, 1.5 mM KH2PO4, 2.7 mM KCl, 8.1 mM Na2HPO4, 150 mM NaCl, pH 7.2). Growth inhibition was evaluated by measuring the absorbance at 620 nm using a Versa-Max microplate Elisa Reader (Molecular Devices Co., Sunnyvale, CA, USA) after 24 h of incubation at 37° C.

all 16 microbial strains = test: Mean MIC over all strains and therapeutic index; format: cell-based; conditions: MIC values in PBS from all 16 microbial strains; 400 μM used when no activity at 200 μM
Method: as §2

S. aureus CCARM 3089 = test: microbe, parasite or virus in culture; format: cell-based, Staphylococcus aureus; conditions: drug-resistant strain, 2 × 10^5 CFU/ml, 24 h at 37° C, average of 3–4 independent experiments
Excerpt: as §1
as §2, with “C. […] All MIC measurements were the average of 3–4 independent experiments.” for “C.”

S. aureus CCARM 3114 = test: microbe, parasite or virus in culture; format: cell-based, Staphylococcus aureus; conditions: drug-resistant strain, 2 × 10^5 CFU/ml, 24 h at 37° C, average of 3–4 independent experiments
Excerpt: as §1
as §2, with “C. […] All MIC measurements were the average of 3–4 independent experiments.” for “C.”

S. aureus CCARM 3108 = test: microbe, parasite or virus in culture; format: cell-based, Staphylococcus aureus; conditions: drug-resistant strain, 2 × 10^5 CFU/ml, 24 h at 37° C, average of 3–4 independent experiments
Excerpt: as §1
as §2, with “C. […] All MIC measurements were the average of 3–4 independent experiments.” for “C.”

S. aureus CCARM 3090 = test: microbe, parasite or virus in culture; format: cell-based, Staphylococcus aureus; conditions: drug-resistant strain, 2 × 10^5 CFU/ml, 24 h at 37° C, average of 3–4 independent experiments
Excerpt: as §1
as §2, with “C. […] All MIC measurements were the average of 3–4 independent experiments.” for “C.”

E. coli CCARM 1238 = test: microbe, parasite or virus in culture; format: cell-based, Escherichia coli; conditions: drug-resistant strain, 2 × 10^5 CFU/ml, 24 h at 37° C, average of 3–4 independent experiments
Excerpt: as §1
as §2, with “C. […] All MIC measurements were the average of 3–4 independent experiments.” for “C.”

[1] = tested on: S. typhimurium CCARM 8007; test: microbe, parasite or virus in culture; format: cell-based, Salmonella typhimurium; conditions: drug-resistant strain, 2 × 10^5 CFU/ml, 24 h at 37° C, average of 3–4 independent experiments, read-out: MIC
Excerpt: as §1
as §2, with “C. […] All MIC measurements were the average of 3–4 independent experiments.” for “C.”

[2] = tested on: S. typhimurium CCARM 8009; test: microbe, parasite or virus in culture; format: cell-based, Salmonella typhimurium; conditions: drug-resistant strain, 2 × 10^5 CFU/ml, 24 h at 37° C, average of 3–4 independent experiments, read-out: MIC
Excerpt: as §1
as §2, with “C. […] All MIC measurements were the average of 3–4 independent experiments.” for “C.”

[3] = tested on: S. typhimurium CCARM 8013; test: microbe, parasite or virus in culture; format: cell-based, Salmonella typhimurium; conditions: drug-resistant strain, 2 × 10^5 CFU/ml, 24 h at 37° C, average of 3–4 independent experiments, read-out: MIC
Excerpt: as §1
as §2, with “C. […] All MIC measurements were the average of 3–4 independent experiments.” for “C.”

[4] = 10 mM sodium phosphate buffer, pH 7.2
[5] = PBS, pH 7.2 (number in parentheses)

**Q.** Which results are given for CC[C@H](C)[C@H](NC(=O)CN)C(=O)NCC(=O)N[C@@H](C)C(=O)N[C@H](C(=O)N[C@@H](CC(C)C)C(=O)N[C@@H](CCCCN)C(=O)N[C@H](C(=O)N[C@@H](CC(C)C)C(=O)N[C@H](C(=O)N[C@H](C(=O)NCC(=O)N[C@@H](CC(C)C)C(=O)N1CCC[C@H]1C(=O)N[C@@H](C)C(=O)N[C@@H](CC(C)C)C(=O)N[C@H](C(=O)N[C@@H](CO)C(=O)N[C@@H](Cc1c[nH]c2ccccc12)C(=O)N[C@H](C(=O)N[C@@H](CCCCN)C(=O)N[C@@H](CCCNC(=N)N)C(=O)N[C@@H](CCCCN)C(=O)N[C@@H](CCCNC(=N)N)C(=O)N[C@@H](CCC(N)=O)C(=O)N[C@@H](CCC(N)=O)C(N)=O)[C@@H](C)CC)[C@@H](C)CC)[C@@H](C)O)[C@@H](C)O)C(C)C)C(C)C [Melittin, reference compound]?
**A.** MIC (S. aureus CCARM 3126; [4]): 1.56 (1.56) μM; MIC (S. aureus CCARM 3126; [5]): 1.56 (1.56) μM; GM (geometric mean of MIC values) (all 16 microbial strains): 3.6 µM; MIC (S. aureus CCARM 3089; [4]): 1.56 (1.56) μM; MIC (S. aureus CCARM 3089; [5]): 1.56 (1.56) μM; MIC (S. aureus CCARM 3114; [4]): 3.12 (3.12) μM; MIC (S. aureus CCARM 3114; [5]): 3.12 (3.12) μM; MIC (S. aureus CCARM 3108; [4]): 1.56 (1.56) μM; MIC (S. aureus CCARM 3108; [5]): 1.56 (1.56) μM; MIC (S. aureus CCARM 3090; [4]): 3.12 (3.12) μM; MIC (S. aureus CCARM 3090; [5]): 3.12 (3.12) μM; MIC (E. coli CCARM 1238; [4]): 1.56 (1.56) μM; MIC (E. coli CCARM 1238; [5]): 1.56 (1.56) μM; MIC [1, 4]: 6.25 µM (≈ 17.8 µg/mL); MIC [1, 5]: 12.5 µM (≈ 35.6 µg/mL); MIC [2, 4]: 6.25 µM (≈ 17.8 µg/mL); MIC [2, 5]: 12.5 µM (≈ 35.6 µg/mL); MIC [3, 4]: 3.12 µM (≈ 8.88 µg/mL); MIC [3, 5]: 6.25 µM (≈ 17.8 µg/mL)

— article PMC3549253, “Effect of repetitive lysine–tryptophan motifs on the bactericidal activity of antimicrobial peptides” (Amino Acids, 2012)
